Measured values from ChEMBL document CHEMBL5053508, “Optimization of Beclin 1-Targeting Stapled Peptides by Staple Scanning Leads to Enhanced Antiproliferative Potency in Cancer Cells” (J Med Chem, 2021).
The source made the active and inactive calls. The rule behind the calls is not given here.

Target: Beclin-1 (Homo sapiens, UniProt Q14457)
Experiment: Binding affinity to Beclin 1 coiled coil domain (unknown origin) by isothermal titration calorimetry assay

Chain of Beclin-1 (Q14457 whole entry, the tested form may be a part): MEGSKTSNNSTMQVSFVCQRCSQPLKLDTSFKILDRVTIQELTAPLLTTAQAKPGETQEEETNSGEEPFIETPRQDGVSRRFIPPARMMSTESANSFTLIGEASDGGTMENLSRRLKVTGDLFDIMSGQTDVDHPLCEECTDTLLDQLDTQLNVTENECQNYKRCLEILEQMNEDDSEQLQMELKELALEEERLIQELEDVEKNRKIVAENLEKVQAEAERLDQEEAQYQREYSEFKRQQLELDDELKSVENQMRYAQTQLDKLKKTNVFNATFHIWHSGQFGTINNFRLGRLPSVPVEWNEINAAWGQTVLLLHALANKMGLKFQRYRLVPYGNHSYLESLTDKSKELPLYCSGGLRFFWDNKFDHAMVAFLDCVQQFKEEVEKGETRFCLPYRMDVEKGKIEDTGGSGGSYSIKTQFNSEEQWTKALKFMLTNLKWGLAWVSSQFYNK

Row | Kd | Activity | SMILES
1 | 356 µM |  | CC[C@H](C)[C@H](NC(=O)[C@H](CC(C)C)NC(=O)[C@H](CCCNC(=N)N)NC(=O)[C@H](CCCNC(=N)N)NC(=O)[C@H](CCCNC(=N)N)NC(=O)[C@H](CCCNC(=N)N)NC(=O)[C@H](CCC(N)=O)NC(=O)[C@H](CCCNC(=N)N)NC(=O)[C@H](CCCNC(=N)N)NC(=O)[C@H](CCCCN)NC(=O)[C@H](CCCCN)NC(=O)[C@H](CCCNC(=N)N)NC(=O)CNC(=O)[C@H](Cc1ccc(O)cc1)NC(C)=O)C(=O)N[C@H](C(=O)N[C@@H]1CCCCCC/C=C/CCC[C@@H](C(=O)N[C@@H](CCCNC(=N)N)C(=O)N[C@@H](CCCCN)C(=O)N[C@@H](CCCNC(=N)N)C(N)=O)NC(=O)[C@H](CCCCN)NC(=O)[C@H](CCC(=O)O)NC(=O)[C@H](C(C)C)NC(=O)[C@H](CC(=O)O)NC(=O)[C@H](CCC(=O)O)NC(=O)[C@H](CCC(N)=O)NC1=O)[C@@H](C)CC
2 | 311 µM |  | CC[C@H](C)[C@H](NC(=O)[C@H](CC(C)C)NC(=O)[C@H](C)NC(=O)[C@H](CCCNC(=N)N)NC(=O)[C@H](CCCNC(=N)N)NC(=O)[C@H](CCCNC(=N)N)NC(=O)[C@H](CCC(N)=O)NC(=O)[C@H](CCCNC(=N)N)NC(=O)[C@H](CCCNC(=N)N)NC(=O)[C@H](CCCCN)NC(=O)[C@H](CCCCN)NC(=O)[C@H](CCCNC(=N)N)NC(=O)CNC(=O)[C@H](Cc1ccc(O)cc1)NC(C)=O)C(=O)N[C@@H](CCC(N)=O)C(=O)N[C@@H]1CCCCCC/C=C/CCC[C@@H](C(=O)N[C@@H](CCCNC(=N)N)C(=O)N[C@@H](CCCCN)C(=O)N[C@@H](CCCNC(=N)N)C(N)=O)NC(=O)[C@H](CCCCN)NC(=O)[C@H](CCC(=O)O)NC(=O)[C@H](C(C)C)NC(=O)[C@H](CC(=O)O)NC(=O)[C@H](CCC(=O)O)NC(=O)[C@H](CCC(N)=O)NC1=O
3 |  | inactive | CC(=O)N[C@@H](Cc1ccc(O)cc1)C(=O)NCC(=O)N[C@@H](CCCNC(=N)N)C(=O)N[C@@H](CCCCN)C(=O)N[C@@H](CCCCN)C(=O)N[C@@H](CCCNC(=N)N)C(=O)N[C@@H](CCCNC(=N)N)C(=O)N[C@@H](CCC(N)=O)C(=O)N[C@@H](CCCNC(=N)N)C(=O)N[C@@H](CCCNC(=N)N)C(=O)N[C@@H](CCCNC(=N)N)C(=O)N[C@@H](CCCNC(=N)N)C(=O)N[C@@H](CC(C)C)C(=O)N[C@@H](CC(C)C)C(=O)N[C@@H](CCC(N)=O)C(=O)N[C@@H]1CCCCCC/C=C/CCC[C@@H](C(=O)N[C@@H](CCCNC(=N)N)C(=O)N[C@@H](CO)C(=O)N[C@H](C(N)=O)C(C)C)NC(=O)[C@H](CCCCN)NC(=O)[C@H](CC(C)C)NC(=O)[C@H](C(C)C)NC(=O)[C@H]([C@@H](C)O)NC(=O)[C@H](CCCCN)NC(=O)[C@H](CC(C)C)NC1=O

Row | SMILES | Kd | Activity
4 | CC[C@H](C)[C@H](NC(=O)[C@H](CC(C)C)NC(=O)[C@H](CCCNC(=N)N)NC(=O)[C@H](CCCNC(=N)N)NC(=O)[C@H](CCCNC(=N)N)NC(=O)[C@H](CCCNC(=N)N)NC(=O)[C@H](CCC(N)=O)NC(=O)[C@H](CCCNC(=N)N)NC(=O)[C@H](CCCNC(=N)N)NC(=O)[C@H](CCCCN)NC(=O)[C@H](CCCCN)NC(=O)[C@H](CCCNC(=N)N)NC(=O)CNC(=O)[C@H](Cc1ccc(O)cc1)NC(C)=O)C(=O)N[C@@H](CO)C(=O)N[C@@H](CCC(=O)O)C(=O)N[C@@H](CC(C)C)C(=O)N[C@@H]1CCCCCC/C=C/CCC[C@@H](C(=O)N[C@@H](C)C(N)=O)NC(=O)[C@H](CCCNC(=N)N)NC(=O)[C@H](CCC(N)=O)NC(=O)[C@H](CCCCN)NC(=O)[C@H](CCC(=O)O)NC(=O)[C@H](CCCNC(=N)N)NC(=O)[C@H](CC(=O)O)NC1=O | 3.21 µM | 
